The text below walks through data of patent publication US20090318492A1, “INDOLE COMPOUNDS HAVING C4-ACIDIC SUBSTITUENTS AND USE THEREOF AS PHOSPHOLIPASE-A2 INHIBITORS” (priority 2005, published 2009).

Where two headings read alike, the source gives them in different places.

For series [1], the system named is Caco-2 cells. The series is described as follows: Example 6B Caco-2 permeability study. The note with it: 10 uM in apical wells, paracellular transport control. The class given is in vitro ADME, human. On the procedure:
The culture medium was refreshed every 48 hours.
Papp=(dQ/dt)×(1/C0)×(1/A)

The target in series [2] is T1, human group 1B PLA2 (hps PLA2) (Homo sapiens, UniProt P04054).
T1 construct: made in house; host or cells: E. coli
T1 sequence (P04054 23-148): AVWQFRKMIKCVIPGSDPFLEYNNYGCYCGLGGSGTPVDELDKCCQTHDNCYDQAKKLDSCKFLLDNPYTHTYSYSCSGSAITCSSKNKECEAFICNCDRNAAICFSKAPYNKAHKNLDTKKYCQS
In words: Example 8 fluorimetric PLA2 inhibition assay (PPyrPM), human enzyme. In kind it is biochemical. Conditions: read-out: ILYPSA IC50 hps PLA2. The source says:
(§1) In this example, a fluorimetric assay procedure was used to evaluate the indole and indole-related compounds of the invention as inhibitors of group 1B phospholipase A2 (PLA2) from human, mouse and porcine. A description of this assay is found in articles: Leslie, C C and Gelb, M H (2004) Methods in Molecular Biology “Assaying phospholipase A2 activity”, 284:229-242; Singer, A G, et al. (2002) Journal of Biological Chemistry “Interfacial kinetic and binding properties of the complete set of human and mouse groups I, II, V, X, and XII secreted phospholipases A2”, 277:48535-48549, which are incorporated herein as references.
In general, this assay used a phosphatidylmethanol substrate with a pyrene fluorophore on the terminal end of the sn-2 fatty acyl chain. Without being bound by theory, close proximity of the pyrenes from neighboring phospholipids in a phospholipid vesicle caused the spectral properties to change relative to that of monomeric pyrene. Bovine serum albumin was present in the aqueous phase and captured the pyrene fatty acid when it is liberated from the glycerol backbone owing to the PLA2-catalyzed reaction. […] The effect of a given inhibitor and inhibitor concentration on human, mouse and porcine phospholipase was determined. […]
(§2) The following procedure was performed to evaluate the inhibitory potency of the evaluated compounds. • 1. […]

In series [3] the target is T2, Porcine group 1B phospholipase A2 (pps PLA2) (Sus scrofa, UniProt P00592).
T2 construct: purchased
T2 sequence (P00592 23-146): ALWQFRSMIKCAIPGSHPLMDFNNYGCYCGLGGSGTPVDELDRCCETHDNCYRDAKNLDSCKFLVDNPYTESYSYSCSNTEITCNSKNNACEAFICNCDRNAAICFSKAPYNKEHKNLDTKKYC
The series is described as follows: Example 8 fluorimetric PLA2 inhibition assay (PPyrPM), porcine enzyme. In kind it is biochemical. Conditions: read-out: ILYPSA IC50 pps PLA2.
Description: as §1
In general, this assay used a phosphatidylmethanol substrate with a pyrene fluorophore on the terminal end of the sn-2 fatty acyl chain. […] The effect of a given inhibitor and inhibitor concentration on human, mouse and porcine phospholipase was determined. […]
The following procedure was performed to evaluate the inhibitory potency of the evaluated compounds. • 1. […] The fluorescence was read using an excitation of 342 nm and an emission of 395 nm.
Evaluated compounds were tested in duplicate and their values were averaged to plot the inhibition curve and calculate the IC50. […] The IC50 was calculated using the BioDataFit 1.02 (Four Parameter Model) software package. […]

Series [4] deals with T3, mouse group 1B PLA2 (mps PLA2) (Mus musculus, UniProt Q9Z0Y2).
T3 construct: made in house; host or cells: E. coli
T3 sequence (Q9Z0Y2 23-146): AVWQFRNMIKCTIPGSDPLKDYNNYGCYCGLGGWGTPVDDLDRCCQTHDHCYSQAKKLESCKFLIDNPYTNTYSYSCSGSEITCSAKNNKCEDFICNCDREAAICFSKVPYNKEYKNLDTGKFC
The series is described as follows: Example 8 fluorimetric PLA2 inhibition assay (PPyrPM), mouse enzyme. The class given is biochemical.
Description: as §1
In general, this assay used a phosphatidylmethanol substrate with a pyrene fluorophore on the terminal end of the sn-2 fatty acyl chain. Without being bound by theory, close proximity of the pyrenes from neighboring phospholipids in a phospholipid vesicle caused the spectral properties to change relative to that of monomeric pyrene. Bovine serum albumin was present in the aqueous phase and captured the pyrene fatty acid when it is liberated from the glycerol backbone owing to the PLA2-catalyzed reaction. However, a potent inhibitor can inhibit the liberation of pyrene fatty acid from the glycerol backbone. […] The effect of a given inhibitor and inhibitor concentration on human, mouse and porcine phospholipase was determined.
Recombinant human and mouse group 1B PLA2 were cloned and expressed in E. coli as insoluble inclusion bodies. The inclusion bodies were isolated and purified by sonicating cell pellet in lysis buffer (50 mM Tris-HCl pH 7.0, 250 mM NaCl, 0.5% Triton 100), centrifugation at 12,000×g, and washing three times in washing buffer (20 mM Tris-HCl pH 7.0, 250 mM NaCl, 0.5% Triton 100). […]
as §2

With Lucifer Yellow, the apparent permeability entry in series [1] is listed as “around 2.82×10^−7+/−0.37×10^−7 cm/s”.
For the compound “2-(3-Aminooxalyl-1-{12-[3-aminooxalyl-4-(1-carboxy-2-methyl-propoxy)-2-methyl-indol-1-yl]-dodecyl}-2-methyl-1H-indol-4-yloxy)-3-methyl-butyric acid [ILY-V-44]”, the IC50 in series [2] stood at 0.28 µM; in series [3], 0.05 µM; in series [4] (read-out: ILYPSA IC50 mps PLA2), 0.48 µM.
The compound `Cc1c(C(=O)C(N)=O)c2c(OC(C(=O)O)C(C)C)cccc2n1CCCCCCCCCCCCOc1ccccc1OCCCCCCCCCCCCn1c(C)c(C(=O)C(N)=O)c2c(OC(C(=O)O)C(C)C)cccc21` (centres unmarked) [ILY-V-33, 2-{3-Aminooxalyl-1-[12-(2-{12-[3-aminooxalyl-4-(1-carboxy-2-methyl-propoxy)-2-methyl-indol-1-yl]-dodecyloxy}-phenoxy)-dodecyl]-2-methyl-1H-indol-4-yloxy}-3-methyl-butyric acid] had an IC50 in series [4] of 0.3 µM.
